# Assays:
# Assay in all cases: relative viability (nuclei count vs DMSO), 5 days (fraction); higher = more cells survive
# Midostaurin + Dasatinib = compound: CO[C@@H]1[C@H](N(C)C(=O)c2ccccc2)C[C@H]2O[C@]1(C)n1c3ccccc3c3c4c(c5c6ccccc6n2c5c31)C(=O)NC4 [Midostaurin] + Cc1nc(Nc2ncc(C(=O)Nc3c(C)cccc3Cl)s2)cc(N2CCN(CCO)CC2)n1 [Dasatinib] (partner 0.075 µM)
# How it was run: (§1)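 Lung cancer cell lines, seeded in 1536-well plates, were treated the following day by pin tool with a single drug or with five library-drug doses (not always all listed) in √10 steps on top of a fixed anchor-drug dose. Cells were fixed and nuclei stained in one step after 5 days, and nuclei were counted. Relative viability is the nuclei count for treated wells divided by that for vehicle wells, reported as medians of duplicate plates.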
# Midostaurin + Navitoclax = compound: CO[C@@H]1[C@H](N(C)C(=O)c2ccccc2)C[C@H]2O[C@]1(C)n1c3ccccc3c3c4c(c5c6ccccc6n2c5c31)C(=O)NC4 [Midostaurin] + CC1(C)CCC(c2ccc(Cl)cc2)=C(CN2CCN(c3ccc(C(=O)NS(=O)(=O)c4ccc(N[C@H](CCN5CCOCC5)CSc5ccccc5)c(S(=O)(=O)C(F)(F)F)c4)cc3)CC2)C1 [Navitoclax] (partner 0.5 µM)
# How it was run: as §1
# Midostaurin + Trametinib = compound: CO[C@@H]1[C@H](N(C)C(=O)c2ccccc2)C[C@H]2O[C@]1(C)n1c3ccccc3c3c4c(c5c6ccccc6n2c5c31)C(=O)NC4 [Midostaurin] + CC(=O)Nc1cccc(-n2c(=O)n(C3CC3)c(=O)c3c(Nc4ccc(I)cc4F)n(C)c(=O)c(C)c32)c1 [Trametinib] (partner 0.02 µM)
# How it was run: as §1
# [1] = compound: COc1cc(-c2nn([C@H]3CC[C@H](N4CCN(C(C)=O)CC4)CC3)c3ncnc(N)c23)ccc1NC(=O)c1cc2ccccc2n1C + C[C@@H](Oc1cc(-c2cnn(C3CCNCC3)c2)cnc1N)c1c(Cl)ccc(F)c1Cl [Crizotinib] (partner 1 µM)
# How it was run: as §1
# [2] = compound: COc1cc(-c2nn([C@H]3CC[C@H](N4CCN(C(C)=O)CC4)CC3)c3ncnc(N)c23)ccc1NC(=O)c1cc2ccccc2n1C + O=C(c1cc(Cc2n[nH]c(=O)c3ccccc23)ccc1F)N1CCN(C(=O)C2CC2)CC1 [Olaparib] (partner 8 µM)
# How it was run: as §1
Cell Line,relative viability (Midostaurin + Dasatinib; first compound 0.01 µM),relative viability (Midostaurin + Dasatinib; first compound 0.03162 µM),relative viability (Midostaurin + Dasatinib; first compound 0.1 µM),relative viability (Midostaurin + Dasatinib; first compound 0.3162 µM),relative viability (Midostaurin + Navitoclax; first compound 0.01 µM),relative viability (Midostaurin + Navitoclax; first compound 0.03162 µM),relative viability (Midostaurin + Navitoclax; first compound 0.1 µM),relative viability (Midostaurin + Navitoclax; first compound 0.3162 µM),relative viability (Midostaurin + Trametinib; first compound 0.01 µM),relative viability (Midostaurin + Trametinib; first compound 0.03162 µM),relative viability (Midostaurin + Trametinib; first compound 0.1 µM),relative viability (Midostaurin + Trametinib; first compound 0.3162 µM),relative viability ([1]; first compound 0.0128 µM),relative viability ([1]; first compound 0.04048 µM),relative viability ([1]; first compound 0.128 µM),relative viability ([1]; first compound 1.28 µM),relative viability ([2]; first compound 0.0128 µM),relative viability ([2]; first compound 0.04048 µM),relative viability ([2]; first compound 0.128 µM),relative viability ([2]; first compound 1.28 µM)
LC-2-ad,0.476,0.582,0.579,0.537,0.477,0.405,0.439,0.224,0.906,0.918,0.749,0.9,0.443,0.399,0.414,0.409,0.783,0.835,0.658,0.8
LCLC-97TM1,0.822,0.798,0.827,0.968,0.467,–,0.393,0.508,0.266,0.194,0.195,0.184,0.364,0.409,0.359,0.519,0.455,0.501,0.326,0.441
LK-2,0.333,0.251,0.393,0.501,0.831,0.876,0.843,0.825,0.767,0.713,0.855,0.618,0.215,0.259,0.187,0.199,0.779,0.674,0.6,0.385
LOU-NH91,0.594,0.534,0.606,0.582,0.753,0.702,0.729,0.825,0.758,0.717,0.814,0.804,0.745,0.811,0.753,0.638,0.924,1.01,0.902,0.831
LU99A,0.434,0.549,0.541,0.348,0.819,0.788,0.576,0.792,0.592,0.558,0.421,0.456,0.629,0.522,0.545,0.696,0.284,0.29,0.286,0.263
LXF-289,0.21,0.173,0.174,0.124,0.954,0.92,0.875,0.968,0.687,0.653,0.671,0.685,0.863,0.794,0.864,0.98,1.17,1.08,1.11,0.982
NCI-H23,0.88,0.659,0.559,0.523,0.875,0.95,0.396,0.788,0.369,0.441,0.285,0.299,0.534,0.533,0.458,0.376,0.323,0.321,0.339,0.292
NCI-H322M,0.272,0.233,0.258,0.332,1.18,1.19,1.31,1.26,0.483,0.567,0.536,0.568,0.999,0.871,0.767,0.878,0.818,0.801,0.693,0.691
NCI-H441,0.677,0.533,0.552,0.405,0.402,0.832,0.522,0.554,0.418,0.373,0.516,0.343,0.841,0.621,0.655,0.705,0.554,0.51,0.622,0.624
NCI-H460,0.576,0.493,0.478,0.553,1.08,0.994,1.05,1.07,0.176,0.174,0.116,0.12,0.854,1.01,0.966,0.682,0.48,0.47,0.312,0.386
NCI-H520,0.176,0.178,0.272,0.203,1.05,1.17,1.02,0.865,0.768,0.717,0.714,0.583,0.763,0.621,0.628,0.549,0.388,0.398,0.286,0.265
NCI-H596,0.661,0.662,0.646,0.729,1.09,1.02,0.978,1.07,0.835,0.847,0.737,0.999,0.943,1.2,1.01,0.64,0.722,0.787,0.681,0.593
NCI-H647,0.181,0.209,0.134,0.103,1.16,0.997,0.953,0.738,0.491,0.593,0.552,0.372,1.03,0.858,0.886,0.541,0.646,0.567,0.514,0.373
NCI-H727,0.363,0.41,0.462,0.383,0.41,0.368,0.361,0.4,0.381,0.444,0.369,0.375,0.745,–,0.626,0.587,0.674,–,0.819,0.78
NCI-H838,0.237,0.282,0.292,0.288,1.23,1.04,1.02,0.354,0.518,0.562,0.412,0.311,0.809,0.854,0.759,0.534,0.799,0.807,0.741,0.471
NCI-H1355,0.796,0.777,0.743,0.818,0.966,0.924,1.01,0.847,0.413,0.459,0.477,0.487,1.15,1.07,1.06,0.946,0.798,0.831,0.756,0.684
NCI-H1437,0.354,0.458,0.35,0.368,1.13,1.03,1.07,1.12,0.615,0.502,0.588,0.518,1.06,0.877,0.922,0.846,0.689,0.636,0.628,0.595
NCI-H1650,0.336,0.34,0.254,0.254,1.29,1.03,1.08,0.846,0.64,0.587,0.594,0.694,0.898,1.07,0.957,0.638,0.822,0.894,0.804,0.731
NCI-H1651,0.322,0.488,0.408,0.446,1.01,1.07,0.897,0.898,0.81,0.804,0.795,0.949,0.902,0.908,0.81,0.712,0.19,0.177,0.205,0.165
NCI-H1666,0.864,0.709,0.716,0.772,0.872,0.855,0.84,0.846,0.823,0.882,0.711,0.81,0.909,0.904,0.97,0.827,0.763,0.793,0.793,0.827
NCI-H1734,0.404,0.632,0.477,0.338,0.829,0.813,0.798,0.697,0.625,0.678,0.691,0.685,0.745,0.596,0.669,0.56,0.621,0.562,0.649,0.539
NCI-H1755,0.413,0.447,0.436,0.343,0.966,0.927,0.828,0.627,0.75,0.811,0.798,0.72,1,0.795,0.875,0.616,0.888,0.922,0.832,0.863
NCI-H1792,0.793,0.779,0.669,0.611,0.613,0.591,0.601,0.647,0.508,0.37,0.383,0.338,0.958,1.01,0.88,0.896,0.481,0.532,0.416,0.416
NCI-H1915,0.359,0.334,0.29,0.331,0.8,0.827,0.794,0.799,0.329,0.312,0.258,0.271,0.87,0.942,0.866,0.869,0.273,0.285,0.262,0.248
NCI-H1944,0.222,0.227,0.234,0.222,1.03,1.18,1.11,1.15,0.419,0.398,0.39,0.413,1.12,1.14,1.02,0.787,0.431,0.409,0.444,0.331
NCI-H1975,0.381,0.374,0.326,0.296,1.13,1.07,1.04,0.818,0.344,0.388,0.357,0.416,0.869,1.18,0.966,0.424,0.819,0.978,0.794,0.494
NCI-H1993,0.65,0.608,0.668,0.419,0.964,0.901,0.972,0.992,0.484,0.537,0.447,0.462,0.925,0.902,0.803,0.645,0.997,1.11,0.885,0.891
NCI-H2009,0.33,0.268,0.254,0.21,1.16,1.14,1.03,1.15,0.263,0.262,0.292,0.319,1.09,0.94,1.04,0.906,0.706,0.714,0.674,0.69
NCI-H2023,0.585,0.691,0.539,0.443,1.07,0.898,0.92,0.903,0.499,0.618,0.375,0.276,0.587,0.736,0.592,0.412,0.519,0.505,0.414,0.449
NCI-H2085,0.29,0.273,0.26,0.236,1.16,1.06,1.02,0.757,0.526,0.53,0.471,0.608,0.86,0.912,0.977,0.695,0.817,0.891,0.804,0.653

# From the supplement of paper PMC10307832
